According to US20240408169A1 (priority 2023, published 2024):
Like-named read-outs stand apart in the source and are kept apart here. *1 amine or outer side, *2 acyl side, *3 side chain or, on linkers, in order; H or OH if unused. Where a SMILES comes first, the peptide text is derived from it. Bridges are numbered along the chain shown (N, C = ends). [ ]: non-standard residue; d: D form. The star is where a group is joined. X126 = CC(C)C(=O)N1[C@H]2COC[C@@H]1C=C(c1ccc(F)cc1C[C@@H](C(=O)[*:2])N(C)[*:1])C2; X87 = CN([C@@H](Cc1cc(F)ccc1-c1ccc(N2CCOCC2)cc1)C(=O)[*:2])[*:1]; X26 = CN([C@@H](Cc1cc(F)ccc1-c1cnn(C2CC2)c1)C(=O)[*:2])[*:1]; NMehhhLys(Me) = CN([C@@H](CCCCCCCN(C)[*:3])C(=O)[*:2])[*:1]; X135 = CN([C@@H](Cc1cc(Cl)ccc1-c1cn(C)cn1)C(=O)[*:2])[*:1]; X131 = CN([C@@H](Cc1cc(F)cnc1-c1cnn(C)c1)C(=O)[*:2])[*:1]; X44 = Cc1nnc(-c2ccc(Cl)cc2C[C@@H](C(=O)[*:2])N(C)[*:1])o1; NMe(hhhLys) = CN([C@@H](CCCCCCCN[*:3])C(=O)[*:2])[*:1]; Cyclobutanecarbonyl(1-CF3) = O=C(C1(C(F)(F)F)CCC1)*; cBuCO(3,3-F2-1-CF3) = O=C(C1(C(F)(F)F)CC(F)(F)C1)*; X133 = Cc1ncc(Cl)cc1C[C@@H](C(=O)[*:2])N(C)[*:1]; Pro(trans-4-F) = O=C(O)[C@@H]1C[C@@H](F)CN1; Gly(cPr) = N[C@H](C(=O)O)C1CC1; X129 = N#CC1(C(=O)*)CCC1

Assays:
CyclinA2/CDK2 = molecular target: T1, CyclinA2/CDK2 (Homo sapiens, UniProt P20248); test: Fluorescence Polarization (FP) competitive binding assay, Cyclin A2/Cdk2;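 also: plates equilibrated two hours at room temperature before polarization reading, IC50 fitted from eight-concentration compound titration curves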
T1 construct: purchased CRELUX Protein Services

CyclinB1/CDK1 = molecular target: T2, CyclinB1/CDK1 (Homo sapiens, UniProt P14635); test: Fluorescence Polarization (FP) competitive binding assay, Cyclin B1/Cdk1;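 also: fluorescence polarization read after equilibration at room temperature, with IC50 taken from serially diluted dose-response curves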
T2 construct: purchased Eurofins, discovery 14-450

CyclinE1/CDK2 = molecular target: T3, CyclinE1/CDK2 (Homo sapiens, UniProt P24864); test: Fluorescence Polarization (FP) competitive binding assay, Cyclin E1/Cdk2;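 also: readings taken after two-hour equilibration at room temperature in HEPES buffer with NaCl, DTT, NP-40 and BSA, IC50 fitted from eight-concentration serial dilution series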
T3 construct: purchased Eurofins, discovery 14-475

OVCAR3 cells = test: MTT proliferation assay, OVCAR3; format: cell-based; details: 5 days compound exposure, 1:3 serial dilution starting at 10 μM;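 also: compound given as an 8- or 10-point series, one day after plating, with exposure covering roughly 3-4 cell doublings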
NCI-H1048 cells = test: MTT proliferation assay, NCI-H1048; format: cell-based; details: 5 days compound exposure, 1:3 serial dilution starting at 10 μM;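 also: Dose-response in 96-well plates over 8 or 10 concentration points, with exposure spanning 3-4 cell doublings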
[1] = 8 nM Cyclin A2/Cdk2, 2 nM FAM probe, average of 2-3 independent experiments, read-out: Cyclin A FP IC50
[2] = 10 nM Cyclin B1/Cdk1, 2 nM FAM probe; average of 2-3 independent experiments; read-out: Cyclin B FP IC50
[3] = 10 nM Cyclin E1/Cdk2, 2 nM FAM probe, average of 2-3 independent experiments, read-out: Cyclin E FP IC50

Which results are given for `Cc1ncc(Cl)cc1C[C@H]1C(=O)N(C)CCCCCCC[C@H](N(C)C(=O)[C@@H](NC(=O)[C@@H]2C[C@@H](F)CN2C(=O)C2(C(F)(F)F)CC(F)(F)C2)C2CC2)C(=O)N[C@@H](CC(C)C)C(=O)N1C` [Example 322] ({cBuCO(3,3-F2-1-CF3)}-[Pro(trans-4-F)][Gly(cPr)][NMehhhLys(Me)]L[X133]; lactam 3-C)?
IC50 (CyclinA2/CDK2; [1]): 80 nM; IC50 (CyclinB1/CDK1; [2]): 20 nM; IC50 (CyclinE1/CDK2; [3]): 530 nM; GI50 (OVCAR3 cells): 60 nM; GI50 (NCI-H1048 cells): 30 nM

What does the source list for `CC(C)C[C@@H]1NC(=O)[C@@H](N(C)C(=O)[C@@H](NC(=O)[C@@H]2C[C@@H](F)CN2C(=O)C2(C(F)(F)F)CC(F)(F)C2)C2CC2)CC=CCCCCN(C)C(=O)[C@H](Cc2cc(Cl)ccc2-c2cncnc2)N(C)C1=O` [Example 30]?
IC50 (CyclinA2/CDK2; [1]): 240 nM; IC50 (CyclinB1/CDK1; [2]): 20 nM; IC50 (CyclinE1/CDK2; [3]): 5050 nM; GI50 (OVCAR3 cells): 140 nM; GI50 (NCI-H1048 cells): 130 nM

`CC(C)C[C@@H]1NC(=O)[C@@H](N(C)C(=O)[C@@H](NC(=O)[C@@H]2C[C@@H](F)CN2C(=O)C2(C#N)CCC2)C2CC2)CCCCCCCN(C)C(=O)[C@H](Cc2cc(F)ccc2-c2cnn(C3CC3)c2)N(C)C1=O` [Example 122] (X129-[Pro(trans-4-F)][Gly(cPr)][NMehhhLys(Me)]L[X26]; lactam 3-C) was tested. Which IC50 (CyclinA2/CDK2; [1]) did it give?
Its IC50 is 20 nM.

And the IC50 (CyclinB1/CDK1; [2])?
Its IC50 is 20 nM.

And the IC50 (CyclinE1/CDK2; [3])?
The IC50 was 100 nM.

What about the GI50 (OVCAR3 cells) of the same compound?
The GI50 was 50 nM.

What about the GI50 (NCI-H1048 cells) of the same compound?
The GI50 was 50 nM.

Which results are given for `CC(C)C[C@@H]1NC(=O)[C@@H](N(C)C(=O)[C@@H](NC(=O)[C@@H]2C[C@@H](F)CN2C(=O)C2(C(F)(F)F)CC(F)(F)C2)C2CC2)CCCCCCCN(C)C(=O)[C@H](Cc2cc(Cl)ccc2-c2cn(C)cn2)N(C)C1=O` [Example 242] ({cBuCO(3,3-F2-1-CF3)}-[Pro(trans-4-F)][Gly(cPr)][NMehhhLys(Me)]L[X135]; lactam 3-C)?
IC50 (CyclinA2/CDK2): 30 nM; IC50 (CyclinB1/CDK1; read-out: Cyclin B FP IC50; 10 nM Cyclin B1/Cdk1, 2 nM FAM probe; average of 2-3 independent experiments): 20 nM; IC50 (CyclinE1/CDK2): 700 nM; GI50 (OVCAR3 cells): 20 nM; GI50 (NCI-H1048 cells): 30 nM

How did the IC50 (CyclinA2/CDK2; [1]) turn out when `Cc1nnc(-c2ccc(Cl)cc2C[C@H]2C(=O)N(C)CCCCCCC[C@H](N(C)C(=O)[C@@H](NC(=O)[C@@H]3C[C@@H](F)CN3C(=O)C3(C(F)(F)F)CCC3)C3CC3)C(=O)N[C@@H](CC(C)C)C(=O)N2C)o1` [Example 163] ({Cyclobutanecarbonyl(1-CF3)}-[Pro(trans-4-F)][Gly(cPr)][NMehhhLys(Me)]L[X44]; lactam 3-C) was run?
Its IC50 is 20 nM.

What about the IC50 (CyclinB1/CDK1; [2]) of the same compound?
Its IC50 is 20 nM.

What about the IC50 (CyclinE1/CDK2; [3]) of the same compound?
Its IC50 is 100 nM.

What about the GI50 (OVCAR3 cells) of the same compound?
Its GI50 is 10 nM.

And the GI50 (NCI-H1048 cells)?
The GI50 was 10 nM.

Which results are given for `CC(C)C[C@@H]1NC(=O)[C@@H](N(C)C(=O)[C@@H](NC(=O)[C@@H]2C[C@@H](F)CN2C(=O)C2(C(F)(F)F)CC(F)(F)C2)C2CC2)CCCCCCCN(C)C(=O)[C@H](Cc2cc(F)cnc2-c2cnn(C)c2)N(C)C1=O` [Example 244] ({cBuCO(3,3-F2-1-CF3)}-[Pro(trans-4-F)][Gly(cPr)][NMehhhLys(Me)]L[X131]; lactam 3-C)?
IC50 (CyclinA2/CDK2; [1]): 60 nM; IC50 (CyclinB1/CDK1; [2]): 20 nM; IC50 (CyclinE1/CDK2; [3]): 580 nM; GI50 (OVCAR3 cells): 40 nM; GI50 (NCI-H1048 cells): 100 nM

Which IC50 (CyclinA2/CDK2; [1]) does the source give for `CC(C)C[C@@H]1NC(=O)[C@@H](N(C)C(=O)[C@@H](NC(=O)[C@@H]2C[C@@H](F)CN2C(=O)C2(C(F)(F)F)CC(F)(F)C2)C2CC2)CCCCCCCNC(=O)[C@H](Cc2cc(F)ccc2-c2ccc(N3CCOCC3)cc2)N(C)C1=O` [Example 334] ({cBuCO(3,3-F2-1-CF3)}-[Pro(trans-4-F)][Gly(cPr)][NMe(hhhLys)]L[X87]; lactam 3-C) here?
Its IC50 is 20 nM.

And the IC50 (CyclinB1/CDK1; [2])?
The IC50 was 20 nM.

What about the IC50 (CyclinE1/CDK2; [3]) of the same compound?
Its IC50 is 190 nM.

What about the GI50 (OVCAR3 cells) of the same compound?
The GI50 was 10 nM.

And the GI50 (NCI-H1048 cells)?
The GI50 was 10 nM.

Which IC50 (CyclinA2/CDK2; [1]) does the source give for `CC(C)C[C@@H]1NC(=O)[C@@H](N(C)C(=O)[C@@H](NC(=O)[C@@H]2C[C@@H](F)CN2C(=O)C2(C(F)(F)F)CC(F)(F)C2)C2CC2)CCCCCCCN(C)C(=O)[C@H](Cc2cc(F)ccc2C2=C[C@H]3COC[C@@H](C2)N3C(=O)C(C)C)N(C)C1=O` [Example 328] ({cBuCO(3,3-F2-1-CF3)}-[Pro(trans-4-F)][Gly(cPr)][NMehhhLys(Me)]L[X126]; lactam 3-C) here?
Its IC50 is 20 nM.

What about the IC50 (CyclinB1/CDK1; [2]) of the same compound?
The IC50 was 20 nM.

What about the IC50 (CyclinE1/CDK2; [3]) of the same compound?
The IC50 was 210 nM.

And the GI50 (OVCAR3 cells)?
The GI50 was 10 nM.

And the GI50 (NCI-H1048 cells)?
The GI50 was 10 nM.

`CC(C)C[C@@H]1NC(=O)[C@@H](N(C)C(=O)[C@@H](NC(=O)[C@@H]2C[C@@H](F)CN2C(=O)C2(C(F)(F)F)CC(F)(F)C2)C2CC2)CC=CCCCCN(C)C(=O)[C@H](Cc2cc(F)ccc2-c2cnn(C3CCOC3)c2)N(C)C1=O` (stereo partly drawn) [Example 85] was tested. Which IC50 (CyclinA2/CDK2; [1]) did it give?
Its IC50 is 60 nM.

What about the IC50 (CyclinB1/CDK1; [2]) of the same compound?
Its IC50 is 20 nM.

What about the IC50 (CyclinE1/CDK2; [3]) of the same compound?
Its IC50 is 280 nM.

And the GI50 (OVCAR3 cells)?
The GI50 was 20 nM.

What about the GI50 (NCI-H1048 cells) of the same compound?
Its GI50 is 20 nM.
